“And” between values parts separate entries of the source, which are not always exact repeats. Equal entries are not always repeated. Toxic doses and inconclusive results are not listed.

The test system of the assay is BDF1 mice, P388 leukemia ip, median survival T/C. The experiment in a line: NCI In Vivo Anticancer Drug Screen. Data for tumor model P388 Leukemia (intraperitoneal) in B6D2F1 (BDF1) mice. The settings on record: endpoint: median survival time, higher = longer survival. The essentials: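 Compound-treated tumour-bearing mice were compared with vehicle-treated controls. Survival was recorded, and the value is the treated-group measurement divided by the control-group measurement (T/C).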

Where [1] appears, read: dose: 100.0 mg/kg/injection, schedule: Q04DX003 (ip), vehicle: saline with Tween-80.
[2] abbreviates: dose: 200.0 mg/kg/injection, schedule: Q04DX003 (ip), vehicle: saline with Tween-80.
[3] abbreviates: dose: 100.0 mg/kg/injection, schedule: Q01DX009 (ip), vehicle: saline with Tween-80.
[4] abbreviates: dose: 200.0 mg/kg/injection, schedule: Q01DX009 (ip), vehicle: saline with Tween-80.
[5] abbreviates: dose: 400.0 mg/kg/injection, schedule: Q01DX009 (ip), vehicle: saline with Tween-80.
Setting [6] is: dose: 100.0 mg/kg/injection, schedule: Q01DX009 (ip), vehicle: Klucel (hydroxypropylcellulose) (HPC).
Setting [7] is: dose: 200.0 mg/kg/injection, schedule: Q01DX009 (ip), vehicle: Klucel (hydroxypropylcellulose) (HPC).
Setting [8] is: dose: 50.0 mg/kg/injection, schedule: Q01DX009 (ip), vehicle: saline with Tween-80.
Where [9] appears, read: dose: 400.0 mg/kg/injection, schedule: Q04DX003 (ip), vehicle: saline with Tween-80.

For the compound `C/C=C1/C[C@@H](C)[C@@](C)(O)C(=O)OCC2=CCN3CC[C@@H](OC1=O)[C@@H]23`, the T/C was 109 % of control (dose: 7.5 mg/kg/injection, schedule: Q01DX010 (ip), vehicle: steriod suspending solution); 100 % of control (dose: 15.0 mg/kg/injection, schedule: Q01DX010 (ip), vehicle: steriod suspending solution); 100 % of control (dose: 30.0 mg/kg/injection, schedule: Q01DX010 (ip), vehicle: steriod suspending solution); 95 % of control and 109 % of control (dose: 60.0 mg/kg/injection, schedule: Q01DX010 (ip), vehicle: steriod suspending solution).

As to `COc1ccc(-c2cc(C)n(C)[n+]2C)cc1`, the T/C is, setting by setting: (dose: 12.5 mg/kg/injection, schedule: Q01DX009 (ip), vehicle: saline with Tween-80) 103 % of control; (dose: 25.0 mg/kg/injection, schedule: Q01DX009 (ip), vehicle: saline with Tween-80) 109 % of control.

For the compound `CC(=O)N=C1C=C(NC(C)=O)C(=O)c2ncccc21`, the T/C runs as follows: (dose: 50.0 mg/kg/injection, schedule: Q04DX003 (ip), vehicle: saline with Tween-80) 109 % of control; under setting [1], 122 % of control; under setting [2], 86 % of control.

Regarding `CC(C)(C)C1Sc2nc3ccccc3n2C1=O` (configuration not stated), the T/C by setting is: (dose: 12.5 mg/kg/injection, schedule: Q01DX009 (ip), vehicle: Klucel (hydroxypropylcellulose) (HPC)) 114 % of control; (dose: 12.5 mg/kg/injection, schedule: Q04DX003 (ip), vehicle: Klucel (hydroxypropylcellulose) (HPC)) 100 % of control; (dose: 25.0 mg/kg/injection, schedule: Q01DX009 (ip), vehicle: Klucel (hydroxypropylcellulose) (HPC)) 114 % of control; (dose: 25.0 mg/kg/injection, schedule: Q04DX003 (ip), vehicle: Klucel (hydroxypropylcellulose) (HPC)) 120 % of control; (dose: 50.0 mg/kg/injection, schedule: Q04DX003 (ip), vehicle: Klucel (hydroxypropylcellulose) (HPC)) 120 % of control.

With `COc1ccc2c(c1)CC[C@@H]1[C@@H]2CC[C@]2(C)/C(=N\O)CC[C@@H]12`, the T/C reads like this: under setting [3], 104 % of control; under setting [4], 109 % of control; under setting [5], 90 % of control.

Take `CC(=O)[C@H]1CC[C@H]2[C@@H]3C[C@H](C)C4=CC(=O)CC[C@]4(C)[C@H]3[C@@H](O)C[C@]12C`: the T/C runs as follows: under setting [1], 107 % of control; under setting [2], 100 % of control.

As to `COC(=O)C(c1ccccc1)C(CC(=O)c1ccccc1)c1ccccc1` (configuration not stated), the T/C is 86 % of control (dose: 50.0 mg/kg/injection, schedule: Q01DX009 (ip), vehicle: Klucel (hydroxypropylcellulose) (HPC)); 89 % of control and 99 % of control under setting [6]; 92 % of control and 101 % of control under setting [7]; 97 % of control (dose: 400.0 mg/kg/injection, schedule: Q01DX009 (ip), vehicle: Klucel (hydroxypropylcellulose) (HPC)).

Consider `CCOC(=O)c1nnc(C)[nH]c1=O`, for which the T/C reads like this: under setting [8], 103 % of control; under setting [3], 103 % of control; under setting [4], 98 % of control.

In the case of `Nc1ccc(/C=C\c2nccc3ccccc23)cc1`, the T/C was 114 % of control (dose: 0.39 mg/kg/injection, schedule: Q01DX009 (ip), vehicle: saline with Tween-80); 107 % of control (dose: 0.78 mg/kg/injection, schedule: Q01DX009 (ip), vehicle: saline with Tween-80); 123 % of control (dose: 0.78 mg/kg/injection, schedule: Q01DX009 (ip), vehicle: saline); 123 % of control (dose: 1.56 mg/kg/injection, schedule: Q01DX009 (ip), vehicle: saline); 89 % of control (dose: 3.13 mg/kg/injection, schedule: Q01DX009 (ip), vehicle: saline with Tween-80); 113 % of control (dose: 3.13 mg/kg/injection, schedule: Q01DX009 (ip), vehicle: saline).

As to `OCC1OC(n2cnc3c2NC=NC[C@H]3O)CC1O` (some centres not stated), the T/C by setting is: (dose: 0.25 mg/kg/injection, schedule: Q01DX005 (ip), vehicle: water) 102 % of control; (dose: 0.25 mg/kg/injection, schedule: Q01DX009 (ip), vehicle: water) 105 % of control; (dose: 0.25 mg/kg/injection, schedule: Q04DX002 (ip), vehicle: saline) 102 % of control; (dose: 0.25 mg/kg/injection, schedule: Q04DX003 (ip), vehicle: saline) 100 % of control; (dose: 0.5 mg/kg/injection, schedule: Q01DX005 (ip), vehicle: water) 109 % of control; (dose: 0.5 mg/kg/injection, schedule: Q01DX009 (ip), vehicle: water) 102 % of control. The T/C (dose: 0.5 mg/kg/injection, schedule: Q04DX002 (ip), vehicle: saline) was 101 % of control; the T/C (dose: 0.5 mg/kg/injection, schedule: Q04DX003 (ip), vehicle: saline) was 99 % of control; the T/C (dose: 0.8 mg/kg/injection, schedule: Q01DX009 (ip), vehicle: saline) was 94 % of control; the T/C (dose: 1.0 mg/kg/injection, schedule: Q01DX009 (ip), vehicle: saline) is 99 % of control; the T/C (dose: 1.3 mg/kg/injection, schedule: Q01DX009 (ip), vehicle: saline) is 92 % of control; the T/C (dose: 1.5 mg/kg/injection, schedule: Q01DX009 (ip), vehicle: saline) is 96 % of control. Also, the T/C is 108 % of control (dose: 2.0 mg/kg/injection, schedule: Q01DX001 (ip), vehicle: saline); 92 % of control (dose: 2.0 mg/kg/injection, schedule: Q01DX009 (ip), vehicle: saline); 99 % of control (dose: 2.25 mg/kg/injection, schedule: Q01DX009 (ip), vehicle: saline); 100 % of control (dose: 3.0 mg/kg/injection, schedule: Q01DX009 (ip), vehicle: saline); 100 % of control (dose: 4.0 mg/kg/injection, schedule: Q01DX001 (ip), vehicle: saline).

For the compound `O=C(Nc1cc(Cl)cc(Cl)c1)C(Cl)Cl`, the T/C (dose: 50.0 mg/kg/injection, schedule: Q01DX010 (ip), vehicle: carboxymethylcellulose (CMC)) is 95 % of control; the T/C (dose: 100.0 mg/kg/injection, schedule: Q01DX010 (ip), vehicle: carboxymethylcellulose (CMC)) is 110 % of control; the T/C (dose: 200.0 mg/kg/injection, schedule: Q01DX010 (ip), vehicle: carboxymethylcellulose (CMC)) was 105 % of control.

As to `CN1C=NNc2ccc(Cl)cc2C1=O`, the T/C is 103 % of control under setting [1], 114 % of control under setting [2] and 109 % of control under setting [9].

For `NNC(=O)CCCCCCCCCCCCCCCO`, under setting [8], the T/C was 94 % of control.

With `O=P(O)(Oc1ccccc1)Oc1ccccc1.[Al]`, the T/C reads like this: under setting [8], 104 % of control; under setting [3], 95 % of control; under setting [4], 95 % of control.

Regarding `COc1cc(O)c(Cc2ccccc2O)c(O)c1C(=O)CCc1ccccc1`, the T/C reads like this: (dose: 0.5 mg/kg/injection, schedule: Q01DX009 (ip), vehicle: alcohol) 100 % of control; (dose: 2.0 mg/kg/injection, schedule: Q01DX009 (ip), vehicle: alcohol) 105 % of control; (dose: 4.0 mg/kg/injection, schedule: Q01DX009 (ip), vehicle: alcohol) 97 % of control; (dose: 5.9 mg/kg/injection, schedule: Q01DX009 (ip), vehicle: alcohol) 119 % of control; (dose: 9.0 mg/kg/injection, schedule: Q01DX009 (ip), vehicle: alcohol) 101 % of control.

Regarding `O=P(NC12CC3CC(CC(C3)C1)C2)(N1CC1)N1CC1`, the T/C runs as follows: (dose: 2.2 mg/kg/injection, schedule: Q01DX009 (ip), vehicle: Klucel (hydroxypropylcellulose) (HPC)) 120 % of control; (dose: 4.4 mg/kg/injection, schedule: Q01DX009 (ip), vehicle: Klucel (hydroxypropylcellulose) (HPC)) 183 % of control; (dose: 6.6 mg/kg/injection, schedule: Q01DX009 (ip), vehicle: Klucel (hydroxypropylcellulose) (HPC)) 238 % of control and 154 % of control and 211 % of control; (dose: 10.0 mg/kg/injection, schedule: Q01DX009 (ip), vehicle: Klucel (hydroxypropylcellulose) (HPC)) 244 % of control and 88 % of control and 122 % of control; (dose: 15.0 mg/kg/injection, schedule: Q01DX009 (ip), vehicle: Klucel (hydroxypropylcellulose) (HPC)) 105 % of control.

Take `COc1ccc(C2CCc3cc4c(cc3C2=O)OCO4)cc1OC` (configuration not stated): the T/C reads like this: under setting [3], 100 % of control; under setting [1], 90 % of control; under setting [4], 95 % of control; under setting [2], 100 % of control; under setting [5], 100 % of control; under setting [9], 100 % of control.

Take `O=C(CCCC(O)(C1CC1)C1CC1)C1CC1`: the T/C was 100 % of control under setting [6] and 115 % of control under setting [7].

The values are drawn from PubChem BioAssay AID328 (DTP/NCI, 2004).
